Tests used:
[1] = system: Bovine retinal endothelial cells (BRECs); experiment: In vitro oxidant stress assay (MTS viable cell assay) in retinal endothelial cells exposed to t-butyl hydroperoxide; assay type: cell-based
Method: The present example provides a study wherein cultured retinal endothelial cells were exposed to an oxidant stress to evaluate the protective effects of pretreatment with quercetin. In addition, the present example provides an assay system for screening compounds for therapeutic activity in nonproliferative diabetic retinopathy.
Bovine retinal endothelial cells (BRECs) (VEC Technologies, Rensselaer, N.Y.) were grown on fibronectin ([…])-coated plasticware at 37° C. in 5% CO2 in MCDB-131 Complete media (VEC Technologies, Rensselaer, N.Y.). For serum-free media (SFM) conditions, MCDB-131 was used supplemented at 5 ml/500 ml with 100× antibiotic/antimycotic, 10 mM L-glutamine, and 0.1% BSA (all from Life Technologies Inc., Grand Island, N.Y.).
The BRECs were seeded at 10,000 cells/well and allowed to attach and grow for three days in 0.2 ml/well in complete media (10% fetal bovine serum (FBS)). The complete media was replaced with SFM for the next twenty-four hours at which time 25 μM quercetin, 100 μM DL-buthionine-(S,R)-sulfoximine (BSO, Sigma, St. Louis, Mo.), and the 0.1% DMSO were added. The next day all media was replaced with SFM (0.1 ml/well) containing 0-500 μM t-butyl hydroperoxide (ICN Biomedicals, Irvine, Calif.). After four hours incubation at 37° C. in 5% CO2 the assay was started by adding 20 μl of a mixture of twenty parts MTS (3-(4,5-dimethythiazol-2-yl)-5-(3-carboxymethoxyphenyl)-2-(4-sulfophenyl)-2H-tetrazolium, inner salt) and one part PMS (phenazine methosulfate) from the Promega ClelTiter 96® AQueous Non-Radioactive Cell Proliferation Assay kit (Promega Corporation, Madison, Wis.). The plates were returned to the incubator for three hours and then net absorbances at 490 nm, obtained by subtraction of a blank mean, were recorded and used as a measure of levels of viable cells.
Using six wells per condition, the assay was carried out three times. The absorbance values were normalized such that the control wells without t-butyl hydroperoxide equaled 100%, and data from the three assays were pooled. An overall statistical difference was found among treatment groups (see FIGURE; ANOVA, P<0.05).

[2] = system: experimentally induced diabetic rats; conditions: oral administration; cited from earlier work
cultured human RPE cells = conditions: cited from earlier work
[3] = system: γ-glutamylcysteine synthetase; conditions: cited from earlier work
[4] = system: phase II detoxification enzyme; conditions: human retinal pigment epithelial cells; cited from earlier work
[5] = system: quinone reductase, glutathione-S-transferase, and glutathione reductase; conditions: various cell lines including human adult retinal pigment epithelial cells; cited from earlier work

## CCCCS(=N)(=O)CCC(N)C(=O)O (racemic) [BS, DL-buthionine-(S,R)-sulfoximine]
[1]; 100 μM BSO pretreatment alone, no t-butyl hydroperoxide
  cell survival: no effect on cell survival
[1]; 100 μM BSO pretreatment, all t-butyl hydroperoxide concentrations
  effect on toxicity of t-butyl hydroperoxide: significantly enhanced the toxicity

## O=c1c(-c2ccc(O)cc2)coc2cc(O)cc(O)c12 [genistein]
[2]
  retinal vascular leakage: reduces retinal vascular leakage

## Cc1c(-c2cnccn2)ssc1=S [oltipraz]
Cultured human RPE cells
  protection from chemical oxidants: Protection of cultured human RPE cells from chemical oxidants

## O=c1c(O)c(-c2ccc(O)c(O)c2)oc2cc(O)cc(O)c12 [quercetin]
[3]
  glutathione levels: increase glutathione levels
[1]; 25 μM quercetin pretreatment, then 0-500 μM t-butyl hydroperoxide 4 h, versus control group at each t-butyl hydroperoxide concentration
  numbers of viable cells (net absorbance at 490 nm, normalized to control without t-butyl hydroperoxide = 100%): higher numbers of viable cells than in the control group

## C[S+]([O-])CCCCN=C=S (stereo not shown) [sulforaphane]
[4]
  induction of a phase II detoxification enzyme: induction of a phase II detoxification enzyme
Cultured human RPE cells
  protection from chemical oxidants: Protection of cultured human RPE cells from chemical oxidants
[5]
  enzyme induction: induce quinone reductase, glutathione-S-transferase, and glutathione reductase

## CC(C)(C)OO [t-butyl hydroperoxide]
[1]; t-butyl hydroperoxide exposure 4 h, all concentrations up to 500 μM
  cell survival: significant reductions in cell survival
